Measured values: ChEMBL document CHEMBL5113490, “Discovery of CN0 as a novel proteolysis-targeting chimera (PROTAC) degrader of PARP1 that can activate the cGAS/STING immunity pathway combined with daunorubicin” (Bioorg Med Chem, 2022)
Values belong to the molecule of their own block, whether it stands above or below them. The source made the active and inactive calls. The rule behind the calls is not given here.

Experiments:
MDA-MB-231 [1] = assay: Growth inhibition of human MDA-MB-231 cells at 0.25 uM; type: functional; settings: read-out: GI
MDA-MB-231 [2] = assay: Growth inhibition of human MDA-MB-231 cells at 1 uM; type: functional; settings: read-out: GI
MDA-MB-231 [3] = assay: Growth inhibition of human MDA-MB-231 cells at 4 uM; type: functional; settings: read-out: GI
4T1 [4] = assay: Growth inhibition of mouse 4T1 cells at 0.25 uM; type: functional; settings: read-out: GI
4T1 [5] = assay: Growth inhibition of mouse 4T1 cells at 0.5 uM; type: functional; settings: read-out: GI
4T1 [6] = assay: Growth inhibition of mouse 4T1 cells at 1 uM; type: functional; settings: read-out: GI
[7] = Cytotoxicity against human MCF-10A cells assessed as growth inhibition at 0.25 uM; type: toxicity, cell-based; settings: read-out: GI
[8] = Cytotoxicity against human MCF-10A cells assessed as growth inhibition at 0.5 uM; type: toxicity, cell-based; settings: read-out: GI
[9] = target: T1, Protein cereblon/Poly [ADP-ribose] polymerase 1 (Homo sapiens, UniProt P09874+Q96SW2); assay: Protac activity at CRBN/PARP1 in human MDA-MB-231 cells assessed as PARP1 degradation measured after 24 hrs; type: cell-based
Target sequence in this assay (P09874 whole entry): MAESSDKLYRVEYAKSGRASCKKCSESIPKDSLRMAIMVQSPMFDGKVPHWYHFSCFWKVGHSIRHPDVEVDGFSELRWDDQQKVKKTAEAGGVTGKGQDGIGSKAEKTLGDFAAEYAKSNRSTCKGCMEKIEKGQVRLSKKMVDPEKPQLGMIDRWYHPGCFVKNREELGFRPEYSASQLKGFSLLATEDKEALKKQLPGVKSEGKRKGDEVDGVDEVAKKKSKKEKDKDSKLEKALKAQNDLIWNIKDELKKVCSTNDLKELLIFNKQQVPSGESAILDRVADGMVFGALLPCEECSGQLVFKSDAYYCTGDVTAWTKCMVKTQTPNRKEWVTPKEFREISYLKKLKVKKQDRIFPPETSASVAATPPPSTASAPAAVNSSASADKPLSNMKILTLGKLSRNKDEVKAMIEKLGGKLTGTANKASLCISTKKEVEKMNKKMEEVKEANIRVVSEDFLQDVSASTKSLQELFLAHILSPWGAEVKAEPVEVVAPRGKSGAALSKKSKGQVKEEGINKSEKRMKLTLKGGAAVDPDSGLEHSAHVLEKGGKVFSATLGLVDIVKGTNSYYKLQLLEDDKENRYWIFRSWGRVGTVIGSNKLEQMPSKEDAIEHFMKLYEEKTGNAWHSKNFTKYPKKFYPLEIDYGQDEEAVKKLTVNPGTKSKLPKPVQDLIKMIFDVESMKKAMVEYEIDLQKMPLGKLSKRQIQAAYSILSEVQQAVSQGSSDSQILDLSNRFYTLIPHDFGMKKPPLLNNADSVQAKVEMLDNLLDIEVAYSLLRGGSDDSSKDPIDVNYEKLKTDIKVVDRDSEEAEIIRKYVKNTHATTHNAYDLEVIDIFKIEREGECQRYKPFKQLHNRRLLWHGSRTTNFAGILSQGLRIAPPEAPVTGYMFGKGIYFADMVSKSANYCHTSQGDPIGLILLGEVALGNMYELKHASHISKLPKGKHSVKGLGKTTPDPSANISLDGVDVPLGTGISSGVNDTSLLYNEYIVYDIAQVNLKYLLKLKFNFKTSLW
Target sequence in this assay (Q96SW2 whole entry): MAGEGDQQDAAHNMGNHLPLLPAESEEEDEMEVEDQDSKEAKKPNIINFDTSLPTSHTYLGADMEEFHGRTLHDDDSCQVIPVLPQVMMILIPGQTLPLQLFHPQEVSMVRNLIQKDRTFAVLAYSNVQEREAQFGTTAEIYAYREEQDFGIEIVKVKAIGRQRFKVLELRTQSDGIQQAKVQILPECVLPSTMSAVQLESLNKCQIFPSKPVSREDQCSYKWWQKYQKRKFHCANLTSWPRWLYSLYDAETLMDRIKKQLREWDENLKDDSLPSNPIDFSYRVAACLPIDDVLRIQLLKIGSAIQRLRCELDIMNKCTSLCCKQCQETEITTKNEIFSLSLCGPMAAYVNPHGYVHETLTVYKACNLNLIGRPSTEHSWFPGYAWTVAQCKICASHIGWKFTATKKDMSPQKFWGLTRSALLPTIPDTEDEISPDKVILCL

[10] = target: T1, Protein cereblon/Poly [ADP-ribose] polymerase 1; assay: Protac activity at CRBN/PARP1 in human MDA-MB-231 cells assessed as PARP1 degradation at 10 uM measured after 4 to 48 hrs; type: cell-based; settings: time 4-48 hrs
Target sequence in this assay (P09874 2-1014 limits assumed): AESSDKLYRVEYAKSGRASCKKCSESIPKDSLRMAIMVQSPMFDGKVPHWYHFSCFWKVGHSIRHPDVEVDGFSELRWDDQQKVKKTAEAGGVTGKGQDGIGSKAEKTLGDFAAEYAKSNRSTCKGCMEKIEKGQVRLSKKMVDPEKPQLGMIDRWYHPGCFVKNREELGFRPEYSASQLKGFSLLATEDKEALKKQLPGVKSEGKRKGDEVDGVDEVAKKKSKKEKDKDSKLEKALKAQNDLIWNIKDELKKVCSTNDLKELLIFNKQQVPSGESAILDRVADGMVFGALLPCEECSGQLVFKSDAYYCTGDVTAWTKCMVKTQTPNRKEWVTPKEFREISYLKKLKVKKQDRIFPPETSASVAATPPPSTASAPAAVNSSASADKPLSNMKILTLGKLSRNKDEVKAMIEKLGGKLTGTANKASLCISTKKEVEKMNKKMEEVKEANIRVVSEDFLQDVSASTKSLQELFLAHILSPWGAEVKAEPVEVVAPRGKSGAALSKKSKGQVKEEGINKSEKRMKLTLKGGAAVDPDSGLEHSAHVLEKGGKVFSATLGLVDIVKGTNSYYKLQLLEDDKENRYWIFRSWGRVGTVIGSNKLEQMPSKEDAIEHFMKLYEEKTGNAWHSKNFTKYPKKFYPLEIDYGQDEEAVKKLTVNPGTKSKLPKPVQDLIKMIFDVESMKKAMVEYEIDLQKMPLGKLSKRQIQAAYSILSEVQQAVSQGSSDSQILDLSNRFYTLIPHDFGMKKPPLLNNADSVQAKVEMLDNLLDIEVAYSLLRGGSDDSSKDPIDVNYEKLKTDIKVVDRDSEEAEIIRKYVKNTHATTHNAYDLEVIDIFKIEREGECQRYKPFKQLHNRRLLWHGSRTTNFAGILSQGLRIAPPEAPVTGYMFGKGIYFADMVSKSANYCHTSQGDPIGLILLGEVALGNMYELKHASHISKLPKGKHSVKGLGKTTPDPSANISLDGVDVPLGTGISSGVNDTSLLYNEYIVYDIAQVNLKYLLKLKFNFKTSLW
Target sequence in this assay (Q96SW2 whole entry partner): as the sequence (Q96SW2 whole entry) above

[11] = target: Protein cereblon (Homo sapiens) (UniProt Q96SW2); assay: Binding affinity to CRBN in human MDA-MB-231 cells measured by thermal shift assay; type: cell-based
[12] = target: T1, Protein cereblon/Poly [ADP-ribose] polymerase 1; assay: Protac activity at CRBN/PARP1 in human MDA-MB-231 cells assessed as PARP1 degradation at 10 uM measured after 3 hrs in presence of 10 uM Z-VAD-FMK; type: cell-based
Target sequence in this assay (P09874 2-1014 limits assumed): as the sequence (P09874 2-1014 limits assumed) above
Target sequence in this assay (Q96SW2 whole entry partner): as the sequence (Q96SW2 whole entry) above

MDA-MB-231 [13] = assay: Inhibition of DNA repair in human MDA-MB-231 cells assessed as induction of gamma-H2AX level at 10 uM in presence of 0.5 uM daunorubicin measured after 2 hrs by western blot analysis; type: functional, cell-based
MDA-MB-231 [14] = assay: Inhibition of DNA repair in human MDA-MB-231 cells assessed as induction of free cytosolic dsDNA at 5 uM in presence of 0.5 uM daunorubicin measured after 24 hrs by DAPI staining method; type: functional, cell-based
MDA-MB-231 [15] = assay: Growth inhibition of human MDA-MB-231 cells at 10 uM; type: functional; settings: read-out: GI
MDA-MB-231 [16] = assay: Growth inhibition of human MDA-MB-231 cells at 10 uM in presence of 0.25 uM daunorubicin; type: functional; settings: read-out: GI
MDA-MB-231 [17] = assay: Growth inhibition of human MDA-MB-231 cells at 10 uM in presence of 1 uM daunorubicin; type: functional; settings: read-out: GI
MDA-MB-231 [18] = assay: Growth inhibition of human MDA-MB-231 cells at 10 uM in presence of 4 uM daunorubicin; type: functional; settings: read-out: GI
MDA-MB-231 [19] = assay: Growth inhibition of human MDA-MB-231 cells assessed as combination index at 10 uM in presence of 0.25 uM daunorubicin; type: functional
MDA-MB-231 [20] = assay: Growth inhibition of human MDA-MB-231 cells assessed as combination index at 10 uM in presence of 1 uM daunorubicin; type: functional
MDA-MB-231 [21] = assay: Growth inhibition of human MDA-MB-231 cells assessed as combination index at 10 uM in presence of 4 uM daunorubicin; type: functional
4T1 [22] = assay: Growth inhibition of mouse 4T1 cells at 10 uM; type: functional; settings: read-out: GI
4T1 [23] = assay: Growth inhibition of mouse 4T1 cells at 10 uM in presence of 0.25 uM daunorubicin; type: functional; settings: read-out: GI
4T1 [24] = assay: Growth inhibition of mouse 4T1 cells at 10 uM in presence of 0.5 uM daunorubicin; type: functional; settings: read-out: GI
4T1 [25] = assay: Growth inhibition of mouse 4T1 cells at 10 uM in presence of 1 uM daunorubicin; type: functional; settings: read-out: GI
4T1 [26] = assay: Growth inhibition of mouse 4T1 cells assessed as combination index at 10 uM in presence of 0.25 uM daunorubicin; type: functional
4T1 [27] = assay: Growth inhibition of mouse 4T1 cells assessed as combination index at 10 uM in presence of 0.5 uM daunorubicin; type: functional
4T1 [28] = assay: Growth inhibition of mouse 4T1 cells assessed as combination index at 10 uM in presence of 1 uM daunorubicin; type: functional
[29] = Cytotoxicity against human MCF-10A cells assessed as growth inhibition at 10 uM; type: toxicity, cell-based; settings: read-out: GI
[30] = Cytotoxicity against human MCF-10A cells assessed as growth inhibition at 10 uM in presence of 0.25 uM daunorubicin; type: toxicity, cell-based; settings: read-out: GI
[31] = Cytotoxicity against human MCF-10A cells assessed as growth inhibition at 10 uM in presence of 0.5 uM daunorubicin; type: toxicity, cell-based; settings: read-out: GI
MDA-MB-231 [32] = assay: Activation of cGAS/STING pathway in human MDA-MB-231 cells assessed as increase in TBK1 phosphorylation at S172 residue at 10 uM in presence of 0.5 uM daunorubicin measured after 24 hrs; type: cell-based; settings: filed as activator
MDA-MB-231 [33] = assay: Activation of cGAS/STING pathway in human MDA-MB-231 cells assessed as increase in IRF3 phosphorylation at S396 residue at 10 uM in presence of 0.5 uM daunorubicin measured after 24 hrs; type: cell-based; settings: filed as activator
MDA-MB-231 [34] = assay: Activation of cGAS/STING pathway in human MDA-MB-231 cells assessed as increase in STING phosphorylation at 10 uM in presence of 0.5 uM daunorubicin measured after 24 hrs; type: cell-based; settings: filed as activator
MDA-MB-231 [35] = assay: Activation of cGAS/STING pathway in human MDA-MB-231 cells assessed as increase in P65 phosphorylation at 10 uM in presence of 0.5 uM daunorubicin measured after 24 hrs; type: cell-based; settings: filed as activator
MDA-MB-231 [36] = assay: Activation of cGAS/STING pathway in human MDA-MB-231 cells assessed as upregulation of cGAS mRNA expression at 10 uM in presence of 0.5 uM daunorubicin measured after 24 hrs; type: cell-based; settings: filed as activator
MDA-MB-231 [37] = assay: Activation of cGAS/STING pathway in human MDA-MB-231 cells assessed as upregulation of STING mRNA expression at 10 uM in presence of 0.5 uM daunorubicin measured after 24 hrs; type: cell-based; settings: filed as activator
MDA-MB-231 [38] = assay: Activation of cGAS/STING pathway in human MDA-MB-231 cells assessed as upregulation of CCL5 mRNA expression at 10 uM in presence of 0.5 uM daunorubicin measured after 24 hrs; type: cell-based; settings: filed as activator
MDA-MB-231 [39] = assay: Activation of cGAS/STING pathway in human MDA-MB-231 cells assessed as upregulation of CXCL9 mRNA expression at 10 uM in presence of 0.5 uM daunorubicin measured after 24 hrs; type: cell-based; settings: filed as activator
MDA-MB-231 [40] = assay: Activation of cGAS/STING pathway in human MDA-MB-231 cells assessed as upregulation of CXCL10 mRNA expression at 10 uM in presence of 0.5 uM daunorubicin measured after 24 hrs; type: cell-based; settings: filed as activator
MDA-MB-231 [41] = assay: Antiproliferative activity against human MDA-MB-231 cells assessed as increase in cell killing by T cells at 10 uM in presence of 0.5 uM daunorubicin measured after 24 hrs by flow cytometry analysis; type: functional, cell-based
[42] = Half-life in rat at 8 mg/kg, iv; type: ADME, organism-based; settings: in vivo
[43] = Cmax in rat at 8 mg/kg, iv; type: ADME, organism-based; design: dose 8 mg/kg, route iv; settings: in vivo
[44] = AUC (0 to t) in rat at 8 mg/kg, iv; type: ADME, organism-based; design: dose 8 mg/kg, route iv; settings: in vivo
[45] = MRT in rat at 8 mg/kg, iv; type: ADME, organism-based; settings: in vivo
4T1 [46] = assay: In vivo protac activity at CRBN/PARP1 in mouse 4T1 cells xenografted in mouse assessed as PARP1 degradation at 25 mg/kg, ip administered once a day; type: functional, organism-based
4T1 [47] = assay: Antitumor activity against mouse 4T1 cells allografted in immunocompetent mouse assessed as reduction in tumor volume at 25 mg/kg, ip administered once a day in presence of daunorubicin at 0.5 mg/kg, ip administered once a day; type: functional, organism-based
[48] = Toxicity in immunocompetent mouse allografted with mouse 4T1 cells assessed as effect on body weight at 25 mg/kg, ip administered once a day in presence of daunorubicin at 0.5 mg/kg, ip administered once a day; type: organism-based; settings: in vivo
4T1 [49] = assay: Antitumor activity against mouse 4T1 cells allografted in immunocompetent mouse assessed as increase in CD8-positive T cells at 25 mg/kg, ip administered once a day in presence of daunorubicin at 0.5 mg/kg, ip administered once a day; type: functional, organism-based

Chain of Protein cereblon (Homo sapiens) (Q96SW2 whole entry): as above

Compound: COc1cccc2c1C(=O)c1c(O)c3c(c(O)c1C2=O)C[C@@](O)(C(C)=O)C[C@@H]3O[C@H]1C[C@H](N)[C@H](O)[C@H](C)O1 [DAUNORUBICIN]
inhibition of growth at 0.25 µM (MDA-MB-231 [1]): 9.76%
inhibition of growth at 1 µM (MDA-MB-231 [2]): 10.7%
inhibition of growth at 4 µM (MDA-MB-231 [3]): 36.9%
inhibition of growth at 0.25 µM (4T1 [4]): 60%
inhibition of growth at 0.5 µM (4T1 [5]): 63.6%
inhibition of growth at 1 µM (4T1 [6]): 69.8%
inhibition at 0.25 µM [7]: 35%
inhibition at 0.5 µM [8]: 46.1%

DC50 [9]: 0.253 µM
Activity [10]: Active
Activity [11]: Active
Activity [12]: Active
half-life [42]: 1.87 h
Cmax [43]: 5770 ng/mL
AUC(0-t) [44]: 6960 ng·h/mL
MRT [45]: 2.55 h
Compound: NC(=O)c1cccc2cn(-c3ccc(C4CCCN(c5cccc6c5C(=O)N(C5CCC(=O)NC5=O)C6=O)C4)cc3)nc12 (centres undefined)
inhibition (MDA-MB-231 [13]): Active
inhibition (MDA-MB-231 [14]): Active
inhibition of growth at 10 µM (MDA-MB-231 [15]): 4.55%
inhibition of growth at 10 µM (MDA-MB-231 [16]): 22.5%
inhibition of growth at 10 µM (MDA-MB-231 [17]): 38.1%
inhibition of growth at 10 µM (MDA-MB-231 [18]): 59.8%
CI (MDA-MB-231 [19]): 0.21
CI (MDA-MB-231 [20]): 0.06
CI (MDA-MB-231 [21]): 0.12
inhibition of growth at 10 µM (4T1 [22]): 2.71%
inhibition of growth at 10 µM (4T1 [23]): 65.5%
inhibition of growth at 10 µM (4T1 [24]): 70.1%
inhibition of growth at 10 µM (4T1 [25]): 98.2%
CI (4T1 [26]): 0.44
CI (4T1 [27]): 0.45
CI (4T1 [28]): 0.0001
inhibition at 10 µM [29]: 4.93%
inhibition at 10 µM [30]: 35%
inhibition at 10 µM [31]: 41.2%
Activity (MDA-MB-231 [32]): Active
Activity (MDA-MB-231 [33]): Active
Activity (MDA-MB-231 [34]): Active
Activity (MDA-MB-231 [35]): Active
Activity (MDA-MB-231 [36]): Active
Activity (MDA-MB-231 [37]): Active
Activity (MDA-MB-231 [38]): Active
Activity (MDA-MB-231 [39]): Active
Activity (MDA-MB-231 [40]): Active
Activity (MDA-MB-231 [41]): Active
Activity (4T1 [46]): Active
Activity (4T1 [47]): Active
Activity [48]: Non-Toxic
Activity (4T1 [49]): Active
